Source: patent publication US9951094B2, “Phosphole compound and fluorescent dye containing the same” (NATIONAL UNIVERSITY CORPORATION NAGOYA UNIVERSITY, priority 2014, dated 2018)
Marks after values point to notes of the source that are not given here.

How the values were obtained:
Type in all cases: physicochemical
[1] = UV-Vis absorption spectra in solvents
Method: (§1) The optical properties of compounds 1 to 3, 6b to 6d, 7a, and 7b were evaluated. Ultraviolet-visible (UV-Vis) absorption and fluorescence spectra were measured with an UV-Vis-NIR spectrophotometer UV-3150 (Shimadzu) and a fluorescence spectrophotometer F-4500 (Hitachi), respectively. Absolute fluorescence quantum yield was determined with an absolute PL quantum yield measurement instruments C9920-02 or C11347-01 (Hamamatsu Photonics). Sample solutions of all the samples were prepared using spectral grade solvents purchased from Nacalai Tesque, and were each measured with a 1 cm square quartz cuvette. The concentrations of each sample for the measurement of UV-Vis absorption spectra were set for ca. 10^−5 M. The concentrations of each sample for the measurement of fluorescence spectra were adjusted in a range where concentration quenching would not occur. For the measurement of absolute fluorescence quantum yield, each sample solution was deaerated by purging with an argon gas stream for several minutes prior to the measurements. The orientation polarizabilities Δf of hexane, ethyl acetate, and methanol, which are not shown in the Tables, were −0.000518, 0.201, and 0.309, respectively.

[2] = Fluorescence spectra in solvents
Method: as §1

[3] = Absolute fluorescence quantum yield in solvents
Method: as §1

[4] = Photobleaching resistance, 403 nm laser irradiation of acetonitrile solutions; settings: acetonitrile solution, 403 nm laser light, 120 minutes; FIG. 2
Method: Solutions of compounds 1, 2 (6a), 6b, 7a, 7b, and a known fluorescent dye Alexa-430 each in acetonitrile were prepared so that their absorbances are in the range from 0.39 to 0.44. The concentration of each compound in the solution was 2.35×10^−5 M for compound 1, 2.17×10^−5 M for compound 2 (6a), 1.25×10^−5 M for compound 6b, 3.30×10^−5 M for compound 7a, and 2.04×10^−5 M for compound 7b. […] Immediately after preparation of each acetonitrile solution, the molar absorption coefficient of the acetonitrile solution was measured. Then, the molar absorption coefficient of the acetonitrile solution was measured after each of irradiations with 403 nm laser light for 20 minutes, 60 minutes, and 120 minutes, and the relative absorbance was determined relative to the molar absorption coefficient before laser light irradiation (immediately after preparation of the solution).

[5] = cyclohexane, apparatus C11347-01, self-absorption correction
[6] = cyclohexane, apparatus C11347-01
[7] = ethyl acetate, apparatus C11347-01

SMILES	Absorption Maximum Wavelength λ max ([1]; CH2Cl2) [nm]	Molar Absorption Coefficient ϵ ([1]; CH2Cl2)	Absorption Maximum Wavelength λ max ([1]; CH3CN) [nm]	Absorption Maximum Wavelength λ max ([1]; DMF) [nm]	Molar Absorption Coefficient ϵ ([1]; DMF)	Absorption Maximum Wavelength λ max ([1]; EtOH) [nm]	Molar Absorption Coefficient ϵ ([1]; EtOH)	Absorption Maximum Wavelength λ max ([1]; benzene) [nm]	Molar Absorption Coefficient ϵ ([1]; benzene)	Absorption Maximum Wavelength λ max ([1]; cyclohexane) [nm]	Molar Absorption Coefficient ϵ ([1]; cyclohexane)	Emission Maximum Wavelength λ em ([2]; CH2Cl2) [nm]	Emission Maximum Wavelength λ em ([2]; CH3CN) [nm]	Emission Maximum Wavelength λ em ([2]; DMF) [nm]	Emission Maximum Wavelength λ em ([2]; EtOH) [nm]	Emission Maximum Wavelength λ em ([2]; cyclohexane) [nm]	Fluorescence Quantum Yield φF ([3]; CH3CN, apparatus C11347-01)	Molar Absorption Coefficient ϵ ([1]; CH3CN)	Fluorescence Quantum Yield φF ([3]; EtOH, apparatus C11347-01)	Fluorescence Quantum Yield φF [3, 6]	other results
O=P1(c2ccccc2)C(c2ccc(N(c3ccccc3)c3ccccc3)cc2)=C(c2ccccc2)c2ccccc21 (stereo not shown) [Compound 1, 2-[4-(N,N-diphenylamino)phenyl]-1,3-diphenylbenzo[b]phosphole-P-oxide]	416	1.76 10^4M^−1 cm^−1	404	409	1.77 10^4M^−1 cm^−1	417	1.68 10^4M^−1 cm^−1	416	1.88 10^4M^−1 cm^−1	412	1.82 10^4M^−1 cm^−1	561	597	598	595	508	0.67^a				Absorption Maximum Wavelength λ max ([1]; CHCl3): 418 nm; Molar Absorption Coefficient ϵ ([1]; CHCl3): 1.78 10^4M^−1 cm^−1; Fluorescence in various solvents from low-polarity to high-polarity solvents [2]: strong fluorescence; Emission Maximum Wavelength λ em ([2]; CHCl3): 551 nm; Shift of fluorescence wavelength as the polarity of the solvent increases ([2]; Table 1 solvents): shifted to the longer wavelength; Emission Maximum Wavelength λ em ([2]; benzene): 531 nm; Fluorescence Quantum Yield φF ([3]; CH2Cl2, apparatus C9920-02): 0.84^b; Fluorescence Quantum Yield φF ([3]; CHCl3, apparatus C9920-02): 0.89^b; Fluorescence Quantum Yield φF ([3]; DMF, apparatus C9920-02): 0.71^b; Fluorescence Quantum Yield φF ([3]; benzene, apparatus C9920-02): 0.89^b; Fluorescence Quantum Yield φF [3, 5]: 0.92^a,c
O=P1(c2ccccc2)C(c2ccc(N(c3ccccc3)c3ccccc3)cc2)=Cc2cc3ccccc3cc21 (stereo not shown) [Compound 6b]	414	3.66 10^4M^−1 cm^−1	405			413	2.67 10^4M^−1 cm^−1			409	4.17 10^4M^−1 cm^−1	533	563		550	450	0.80	3.25 10^4M^−1 cm^−1	0.79	0.90	Fluorescence Quantum Yield φF ([3]; CH2Cl2, apparatus C11347-01): 0.95; Resistance to photobleaching (relative absorbance) [4]: outstanding resistance to photobleaching
O=P1(c2ccccc2)C(c2ccc(N(c3ccccc3)c3ccccc3)cc2)=Cc2ccccc21 (stereo not shown) [Compound 2, 2-[4-(N,N-diphenylamino)phenyl]-1-phenylbenzo[b]phosphole-P-oxide]	413	1.75 10^4M^−1 cm^−1	406	409	1.71 10^4M^−1 cm^−1	416	1.78 10^4M^−1 cm^−1	414	1.91 10^4M^−1 cm^−1	410	1.95 10^4M^−1 cm^−1	543	571	564	565	456	0.61	1.77 10^4M^−1 cm^−1	0.57		Emission Maximum Wavelength λ em ([2]; benzene): 497 nm; Fluorescence Quantum Yield φF ([3]; CH2Cl2, apparatus C11347-01): 0.91; Fluorescence Quantum Yield φF ([3]; DMF, apparatus C11347-01): 0.67; Fluorescence Quantum Yield φF ([3]; benzene, apparatus C11347-01): 0.97; Fluorescence Quantum Yield φF [3, 5]: 0.93^b
CN(C)c1ccc(C2=Cc3ccccc3P2(=O)c2ccccc2)cc1 (stereo not shown) [Compound 3, 2-[4-(N,N-dimethylamino)phenyl]-1-phenylbenzo[b]phosphole-P-oxide]	412	1.71 10^4M^−1 cm^−1	408	412	1.73 10^4M^−1 cm^−1	415	1.69 10^4M^−1 cm^−1	410	1.89 10^4M^−1 cm^−1	401		532	558	559	565	456	0.89	1.73 10^4M^−1 cm^−1	0.82		Emission Maximum Wavelength λ em ([2]; benzene): 507 nm; Fluorescence Quantum Yield φF ([3]; CH2Cl2, apparatus C11347-01): 0.93; Fluorescence Quantum Yield φF ([3]; DMF, apparatus C11347-01): 0.88; Absolute fluorescence quantum yield compared with compound 2 ([3]; Tables 2 and 3): higher absolute fluorescence quantum yield than compound 2; Fluorescence Quantum Yield φF ([3]; benzene, apparatus C11347-01): 0.95; Fluorescence Quantum Yield φF [3, 5]: 0.91^b
O=P1(c2ccccc2)C(c2ccc(N(c3ccccc3)c3ccccc3)cc2)=Cc2ccc3ccccc3c21 (stereo not shown) [Compound 6d]			439			448	1.94 10^4M^−1 cm^−1			440	1.81 10^4M^−1 cm^−1		620		611	495	0.58	2.07 10^4M^−1 cm^−1	0.51	0.92	Absorption Maximum Wavelength λ max ([1]; ethyl acetate): 436 nm; Molar Absorption Coefficient ϵ ([1]; ethyl acetate): 2.02 10^4M^−1 cm^−1; Emission Maximum Wavelength λ em ([2]; ethyl acetate): 564 nm; Fluorescence Quantum Yield φF [3, 7]: 0.90
O=P1(c2ccccc2)C(c2cc3c4c(c2)CCCN4CCC3)=Cc2cc3ccccc3cc21 (stereo not shown) [Compound 6c]			425			429	2.33 10^4M^−1 cm^−1			420	2.38 10^4M^−1 cm^−1		580		583	466	0.71	2.35 10^4M^−1 cm^−1	0.67	0.90	Absorption Maximum Wavelength λ max ([1]; ethyl acetate): 420 nm; Molar Absorption Coefficient ϵ ([1]; ethyl acetate): 2.38 10^4M^−1 cm^−1; Emission Maximum Wavelength λ em ([2]; ethyl acetate): 538 nm; Fluorescence Quantum Yield φF [3, 7]: 0.90
O=P1(c2ccccc2)C2=C(c3ccccc31)C(c1ccccc1)(c1ccccc1)c1cc(N(c3ccccc3)c3ccccc3)ccc12 (stereo not shown) [Compound 7a]			428			439	1.60 10^4M^−1 cm^−1			424	1.60 10^4M^−1 cm^−1		590		589	482	0.79	1.62 10^4M^−1 cm^−1	0.70	0.88	Absorption Maximum Wavelength λ max ([1]; ethyl acetate): 424 nm; Molar Absorption Coefficient ϵ ([1]; ethyl acetate): 1.61 10^4M^−1 cm^−1; Emission Maximum Wavelength λ em ([2]; ethyl acetate): 540 nm; Fluorescence Quantum Yield φF [3, 7]: 0.90; Resistance to photobleaching (relative absorbance) [4]: outstanding resistance to photobleaching
